The record followed here is ChEMBL document CHEMBL1142194, “High-throughput Plasmodium falciparum growth assay for malaria drug discovery” (Antimicrob Agents Chemother, 2007).

In assay [1] the test system is Plasmodium falciparum. Description: (§1) Growth inhibition of Plasmodium falciparum ring stage in infected erythrocytes by DAPI growth assay. The assay is classed as functional, organism-based.
The test system of assay [2] is Plasmodium falciparum. Description: microbe, parasite or virus in culture. To be noted: HB3, 72 h.
Description: Growth inhibition of Plasmodium falciparum HB3 ring stage in infected erythrocytes after 72 hrs in DAPI fluorimetry
The subject of assay [3] is Plasmodium falciparum. Description: Growth inhibition of Plasmodium falciparum as reduced [3H]hypoxanthine incorporation. The assay is classed as functional, organism-based.
The test system of assay [4] is Plasmodium falciparum. Description: microbe, parasite or virus in culture. The note with it: Dd2, 72 h.
Description: Growth inhibition of Plasmodium falciparum Dd2 ring stage infected erythrocytes after 72 hrs by DAPI fluorimetry
The test system of assay [5] is Plasmodium falciparum. Described as §1. It counts as functional, organism-based. This is another data set of the same source.
For assay [6], the system named is Plasmodium falciparum. Description: microbe, parasite or virus in culture. The note with it: 3D7, 72 h.
Description: Growth inhibition of Plasmodium falciparum 3D7 ring stage in infected erythrocytes after 72 hrs in DAPI fluorimetry

Regarding `C[C@@H]1CC[C@H]2[C@@H](C)C(=O)O[C@@H]3O[C@@]4(C)CC[C@@H]1[C@]32OO4` [ARTEMISININ], the IC50 (in general, the concentration that gives 50% inhibition) in assay [1] amounted to 9.67 nM; in assay [2] it was 9.7 nM; in assay [3], 10.1 nM; in assay [4], 12.3 nM; in assay [5], 10.8 nM; in assay [6] it was 10.8 nM.
Consider `O=C1C(O)=C([C@H]2CC[C@H](c3ccc(Cl)cc3)CC2)C(=O)c2ccccc21` [ATOVAQUONE], for which the IC50 in assay [1] is 0.63 nM; in assay [3], 0.61 nM; in assay [5], 0.66 nM.
For `OC(c1cc(C(F)(F)F)nc2c(C(F)(F)F)cccc12)C1CCCCN1` (stereo not drawn) [MEFLOQUINE], the IC50 in assay [2] stood at 9.63 nM; in assay [4], 26 nM; in assay [6], 12.3 nM.
In the same order, the values of `CCc1nc(N)nc(N)c1-c1ccc(Cl)cc1` [PYRIMETHAMINE] are 49.9 nM, 44.1 nM and 10 nM.
For the compound `C=C[C@H]1CN2CC[C@H]1C[C@H]2[C@H](O)c1ccnc2ccc(OC)cc12` [QUININE], the IC50 in assay [1] came out at 69.2 nM; in assay [3], 62.8 nM; in assay [5], 66.5 nM.
